Reference: patent US20040014676A1, “SRC kinase inhibitors useful for treating osteoporosis” (priority 2001, published 2004)
pIC50: −log10 of the molar value.

What follows are compounds tested against T1, Src kinase (Homo sapiens, UniProt P12931) (assay: Phosphorylation assay of Src kinase inhibitors (radiometric, 96 well filter plate)). Settings: duplicates, tested in the range of 400-0.098 µM; 10 µM peptide substrate (FIYGAFKKKKNH2), 5 µM unlabeled ATP, room temperature 30 min; read-out: IC50.
T1 construct: purchased Upstate Bioteolnology (sic; Upstate Biotechnology); later HMR stock 27597-019E1 #14-117
Format: biochemical
Procedure: The present invention provides novel compounds of Formulae I through XVIII discussed above. The following compounds which fall within Formulae I through XVIII are characterized by structure, IUPAC name and activity using phosphorylation assay for protein tyrosine Src kinase.
Phosphorylation Assay of Src Kinase Inhibitors
The activity of Src kinase was measured in a 96 well plate phosphorylation assay where the transfer of gamma phosphate from ATP to peptide substrate was measured radiometrically. […] Ki values were determined experimentally for some of the inhibitors. The phosphocellulose filter plates (Millipore catalog #MAPH NOB) were prewet prior to the phosphorylation assay by addition of 100 1 per well of 30 mM MES buffer+0.4 mg/ml BSA. After a 20-minute incubation, the buffer was removed completely via a Millipore vacuum manifold. The phosphorylation assay was then set up in the filter plates in a total volume per well of 60 1. The 60 1 consisted of compound (see concentration ranges above), a 1:100 dilution of Src kinase (originally Upstate Bioteolnology, #14-117; later HMR stock 27597-019E1) or assay buffer alone (for no enzyme control wells), 10 M peptide substrate (FIYGAFKKKKNH2), 5 M unlabeled ATP and a 1:500 dilution of P-ATP (New England Nuclear, catalog #NEG-602H, 2000 Ci/mmol). The reaction was mixed and incubated at room temperature for 30 min. The kinase reactions were stopped by addition of 150 mM H3PO4 and incubated for 10 minutes. The filter plate wells were filtered and washed seven times with 200 1 per well of 150 mM H3PO4. Finally, the filter plate was placed into a Packard plate adapter (Packard catalog #600517B), 35 1 of Microscint-20 (Packard catalog #6013621) was added to each well, the plate was sealed (TopSeal A sealers; Packard catalog #6005185) and counted on a Packard TopCount.

Compound	pIC50
NC(=O)CNC(=O)c1cc2ccccc2cc1C(=O)NCCCNC(=O)[C@@H](N)Cc1ccc(O)cc1 [Example 89, 3-[[[3-[[[1-OXO-2(S)-AMINO-3- HYDROXYPHENYL)]PROPYL]AMINO]- PROPYL]AMINO]CARBONYL]- NAPHTHALENE-2-ACETAMIDO)- CARBOXAMID]	3.60
CN(CCCCOc1cc2ccccc2cc1C(=O)NCC(N)=O)C(=O)C(N)Cc1csc2ccccc12 (stereo not shown) [Example 153, 3-[[[4-[3-(BENZOTHIOPHEN-3-YL)-2- AMINO-1-OXO]PROPYL](N-METHYL)- AMINO]BUTOXY]-NAPHTHALENE-2- (N-ACETAMIDO)CARBOXAMIDE]	6.48
NC(=O)CNC(=O)c1cc2ccccc2cc1OCCCCNC(=O)[C@@H](N)Cc1cccs1 [Example 55, 3-[4-[[[2(S)-AMINO-3-(THIOPHEN-2-YL)- 1-OXO]PROPYL]AMINO]BUTOXY]- NAPHTHALENE-2-(N-ACETAMIDO)- CARBOXAMIDE]	5.87
C[C@@H](NC(=O)c1cc2ccccc2cc1OCCCCNC(=O)[C@H](N)Cc1ccc(O)cc1)C(N)=O (stereo in doubt) [Example 122, 2-[[4-[[1-OXO-2-AMINO-3-(4-HYDROXY- PHENYL)]PROPYL]AMINO] BUTOXY]- NAPHTHALENE-3-[N-[1(S)-METHYL-2- OXO-2-AMINO)ETHYL]ACETAMIDO]- CARBOXAMIDE]	4.92
NC(=O)CNC(=O)c1cc2ccccc2cc1OCCCCNC(=O)[C@@H](N)Cc1ccc(F)cc1 [Example 41, 3-[[4-[[2(S)-AMINO-3-(4-FLUORO- PHENYL)-1-OXO]PROPYL]AMINO]- BUTOXY]-NAPHTHALENE-2- (N-ACETAMIDO)CARBOXAMIDE]	6.51
C[C@H](N)C(=O)NCCCCOc1cc2ccccc2cc1C(=O)NCC(N)=O [Example 65, 3-[4-[[(1-OXO-2(S)-AMINO)PROPYL]- AMINO]BUTOXY]-NAPHTHALENE-2- (N-ACETAMIDO)CARBOXAMIDE]	4.00
NC(=O)CNC(=O)c1cc2ccccc2cc1OCCCCNC(=O)[C@@H](N)CC1CCCCC1 [Example 49, 3-[[4-[[2(S)-AMINO-3(CYCLOHEXYL)-1- OXO]PROPYL]AMINO]BUTOXY]- NAPHTHALENE-2-(N-ACETAMIDO)- CARBOXAMIDE]	6.04
NCC(=O)N[C@@H](Cc1ccc(O)cc1)C(=O)NCCCCOc1cc2ccccc2cc1C(=O)NCC(N)=O [Example 74, 3-[4-[[[(1-OXO-2-[(N-AMINOMETHYL- CARBONYL)(S)AMINO]3-(4-HYDROXY- PHENYL)]PROPYL]AMINO]BUTOXY]- NAPHTHALENE-2-(N-ACETAMIDO)- CARBOXAMIDE]	4.60
C[N+](C)(C)[C@@H](Cc1ccccc1)C(=O)NCCCCOc1cc2ccccc2cc1C(=O)NCC(N)=O [Example 69]	4.85
3-[[4-[[1-OXO-2(S)-AMINO-3-(4- HYDROXYPHENYL)]PROPYL]AMINO]BUTOXY]-7-METHOXY- NAPHTHALENE-2-[N-[[(3-HYDROXY- PROPYLAMINO)-CARBONYL]- METHYL]]CARBOXAMIDE [Example 118]	4.33
NC(=O)c1cc2ccccc2cc1OCCCCNC(=O)[C@@H](N)Cc1ccc(O)cc1 [Example 6, 3-[4-[[2(S)-AMINO-3-(4-HYDROXY- PHENYL)-1-OXOPROPYL]AMINO]- BUTOXY]-NAPHTHALENE-2- CARBOXAMIDE]	4.33
CNC(=O)C(Cc1ccc(C#N)cc1)C(=O)NCCCCOc1cc2ccccc2cc1C(=O)NCC(N)=O (stereo not shown) [Example 124, N-(4-{3-[N-(carbamoylmethyl)carbamoyl](2-naphthyloxy)}butyl)-2RS-[(4-cyanophenyl)methyl]-N′-methylpropane-1,3-diamide]	5.22
NC(=O)CNC(=O)c1cc2ccccc2cc1OCCCCNC(=O)[C@@H](N)Cc1ccccc1 [Example 14, 3-[4-[[2(S)-AMINO-3-(PHENYL)-1- OXOPROPYL]AMINO]BUTOXY]- NAPHTHALENE-2-[N-(2- AMIDOMETHYL)]CARBOXAMIDE]	6.01
NC(=O)CNC(=O)c1cc2ccccc2cc1OCCCCNC(=O)[C@@H](N)Cc1csc2ccccc12 [Example 44, 3-[[4-[[2(S)-AMINO-3(BENZOTHIOPHEN- 3-YL)-1-OXO]PROPYL]AMINO]- BUTOXY]-NAPHTHALENE-2- (N-ACETAMIDO)CARBOXAMIDE]	6.64
CC(C)(C)C(=O)NCCCCOc1cc2ccccc2cc1C(=O)NCC(N)=O [Example 66, 3-[4-[[(1-OXO-2,2-DIMETHYL)PROPYL]- AMINO]BUTOXY]-NAPHTHALENE-2- (N-ACETAMIDO)CARBOXAMIDE]	5.22
NC(=O)CNC(=O)c1cc2ccccc2cc1/N=C(/OCCCCNC(=O)C(N)Cc1ccc(O)cc1)C(F)(F)F (stereo not shown) [Example 127, 3-[[1-TRIFLUOROMETHYL][1-[4-[[[1- OXO-2-AMINO-3-HYDROXYPHENYL)]- PROPYL]AMINO]BUTOXY]]- METHYLENIMINO]-NAPHTHALENE-2- [N-ACETAMIDO]CARBOXAMIDE]	4.72
NC(=O)CNC(=O)c1cc2ccccc2cc1OCCCCNC(=O)[C@@H](N)C(c1ccccc1)c1ccccc1 [Example 39, 3-[[4-[(2(S)-AMINO-3,3-BISPHENYL-1- OXO)PROPYL]AMINO]BUTOXY]- NAPHTHALENE-2-(N-ACETAMIDO)- CARBOXAMIDE]	5.77
NC(=O)CNC(=O)c1cc2ccccc2cc1OCCCCNC(=O)[C@@H](N)Cc1csc2ccccc12 [Example 51, 3-[[4-[[2(S)-AMINO-3-(BENZO- THIOPHEN-3-YL)-1-OXO]PROPYL]- AMINO]BUTOXY]-NAPHTHALENE-2- (N-ACETAMIDO)CARBOXAMIDE]	7.00
NC(=O)CNC(=O)c1cc2ccccc2cc1OCCCCN1CCC[C@@H](c2ccccc2)[C@H](N)C1=O [Example 76, 3-[4-[(2-OXO-3(R)-AMINO-4(S)- PHENYL)HEXAMETHYLENEIMIN-1- YL]BUTOXY]-NAPHTHALENE-2-(N- ACETAMIDO)CARBOXAMIDE]	5.22
COc1ccc2cc(OCCCCNC(=O)[C@@H](N)Cc3ccc(O)cc3)c(C(=O)NCC(N)=O)cc2c1 [Example 106, 3-[[4-[[2(S)-AMINO-3-(4-HYDROXY- PHENYL)-1-OXOPROPYL]AMINO]- BUTOXY]-7-METHOXY- NAPHTHALENE-2-[N-ACETAMIDO]- CARBOXAMIDE]	5.60
Cc1nc(-c2ccc(CC(N)C(=O)NCCCCOc3cc4ccccc4cc3C(=O)NCC(N)=O)cc2)no1 (stereo in doubt) [Compound 135, (2S)-2-amino-N-(4-{3-[N-(carbamoylmethyl)carbamoyl](2-naphtyloxy)}butyl)-3-[4-(5-methyl(1,2,4-oxadizol-3-yl))phenyl]propanamide]	4.54
N[C@@H](Cc1ccc(O)cc1)C(=O)NCCCCOc1cc2ccccc2cc1C(=O)NCC(=O)NCCCO [Example 99, 3-[[4-[[1-OXO-2(S)-AMINO-3-(4- HYDROXYPHENYL)]PROPYL]AMINO]- BUTOXY]NAPHTHALENE-2-[N-[[[[3- HYDROXYPROPYL]AMINO]- CARBONYL]METHYL]]CARBOXAMIDE]	6.31
NC(=O)CNC(=O)c1cc2cc(Br)ccc2c(Br)c1OCCCCNC(=O)[C@@H](N)Cc1ccc(O)cc1 [Example 105, 1,6-DIBROMO-2-[[4-[[1-OXO-2(S)- AMINO-3-(4-HYDROXYPHENYL)]- PROPYL]AMINO]BUTOXY]- NAPHTHALENE-3-(N-ACETAMIDO)- CARBOXAMIDE]	4.70
NC(=O)CNC(=O)c1cc2ccccc2cc1OCCCCNC(=O)[C@@H](N)Cc1ccc(Br)cc1 [Example 61, 3-[4-[[[1-OXO-2(S)-AMINO-3(4- BROMOPHENYL)]PROPYL]AMINO]- BUTOXY]-NAPHTHALENE-2-(N- ACETAMIDO)CARBOXAMIDE]	6.30
NC(=O)CNC(=O)c1cc2ccccc2cc1OCCCCNC(=O)C(N)C1Cc2ccccc2C1 (stereo not shown) [Example 52, 3-[4-[N-[1-OXO-2-AMINO-2-(INDAN-2- YL)]ETHYL]-AMINOBUTOXY]- NAPHTHALENE-2-(N-ACETAMIDO)- CARBOXAMIDE]	5.81
NC(=O)CNC(=O)[C@@H](Cc1ccccc1)NCCCCCNC(=O)[C@H](N)Cc1csc2ccccc12 [Example 80, N-[((R)BENZYL)[(AMINO)(CARBONYL) (METHYL)(AMINO)(CARBONYL)]- METHYL]-5-[[N-[1-OXO-2- AMINO-3-(R)(BENZOTHIOPHEN-3-YL)]PROPYL]AMINO]PENTYLAMINE]	5.22
N[C@@H](Cc1ccc(O)cc1)C(=O)NCCCOc1cc2ccccc2cc1C(=O)NCC(=O)NCCCO [Example 7, 3-[3-[[2(S)-AMINO-3-(4-HYDROXY- PHENYL)-1-OXOPROPYL]AMINO]- PROPOXY]-N-[2-[(3-HYDROXY- PROPYL)AMINO]-2-OXOETHYL]-2- NAPHTHALENECARBOXAMIDE]	4.35
NC(=O)CNC(=O)c1cc(-c2ccccc2)ccc1OCCCCNC(=O)C(N)Cc1ccc(O)cc1 (stereo in doubt) [Compound 144, (2S)-2-amino-N-(4-{2-[N-(carbamoylmethyl)carbamoyl]-4-phenylphenoxy}butyl)-3-(4-hydroxyphenyl)propanamide]	4.52
